Data taken from BindingDB's records for doi:10.1021/acs.jmedchem.9b01226 (Purdue University, 2020).

What was measured:
[1] = biological target: T1, Proteasome subunit beta type-8 (Homo sapiens, UniProt P28062); experiment: Inhibition of immunoproteasome subunit LMP7 in human INA60 cells assessed as reduction in cell viability incubated for 48 hrs by MTT assay
T1 sequence (P28062 whole entry): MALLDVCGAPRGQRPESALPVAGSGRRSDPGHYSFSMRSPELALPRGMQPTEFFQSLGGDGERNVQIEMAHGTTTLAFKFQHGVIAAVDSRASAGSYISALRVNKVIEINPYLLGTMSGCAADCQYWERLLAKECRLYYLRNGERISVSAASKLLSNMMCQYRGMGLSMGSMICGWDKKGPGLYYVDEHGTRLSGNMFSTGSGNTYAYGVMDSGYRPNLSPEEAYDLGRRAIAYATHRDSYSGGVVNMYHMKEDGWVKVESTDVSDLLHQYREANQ

[2] = biological target: T1, Proteasome subunit beta type-8; experiment: Inhibition of immunoproteasome subunit LMP7 in human OPM1 cells assessed as reduction in cell viability incubated for 48 hrs by MTT assay
[3] = biological target: T1, Proteasome subunit beta type-8; experiment: Inhibition of immunoproteasome subunit LMP7 in human MM.1R cells assessed as reduction in cell viability incubated for 48 hrs by MTT assay
[4] = biological target: T1, Proteasome subunit beta type-8; experiment: Inhibition of immunoproteasome subunit […] in human OPM1 cells assessed as reduction in cell viability incubated for 48 hrs by MTT assay
[5] = biological target: T1, Proteasome subunit beta type-8; experiment: Inhibition of immunoproteasome subunit LMP7 in human KMS12PE cells assessed as reduction in cell viability incubated for 48 hrs by MTT assay
[6] = biological target: T1, Proteasome subunit beta type-8; experiment: Inhibition of immunoproteasome subunit LMP7 in human RPMI8226 cells assessed as reduction in cell viability incubated for 48 hrs by MTT assay
[7] = biological target: T1, Proteasome subunit beta type-8; experiment: Inhibition of immunoproteasome subunit LMP7 in human LR5 cells assessed as reduction in cell viability incubated for 48 hrs by MTT assay
[8] = biological target: T1, Proteasome subunit beta type-8; experiment: Inhibition of immunoproteasome subunit LMP7 in human DOX40 cells assessed as reduction in cell viability incubated for 48 hrs by MTT assay
[9] = biological target: T1, Proteasome subunit beta type-8; experiment: Inhibition of immunoproteasome subunit LMP7 in human MM.1S cells assessed as reduction in cell viability incubated for 48 hrs by MTT assay

Measured: IC50

CC1=C(C(=O)N[C@H](C)C(=O)N[C@@H](Cc2c[nH]c3ccccc23)C(=O)N[C@@H](Cc2ccccc2)C(=O)[C@@]2(C)CO2)Cc2ccccc21
3 µM: [1] | [2] | [3] | [4] | [5] | [6] | [7] | [8] | [9]
